# Results taken from paper PMC8954575, “Norepinephrine and Serotonin Can Modulate the Behavior of the Probiotic Enterococcus faecium NCIMB10415 towards the Host: Is a Putative Surface Sensor Involved?” (Microorganisms, 2022).
# Biological target: T1, VicK (WalK) (Enterococcus faecium, UniProt Q3XYG9)
# T1 construct: VicK (WalK) from a synthetic codon-optimized gene in pET-15b, N-terminal His-tag, purified from E. coli BL21 with DDM, RED-NHS labelled
# T1 sequence (Q3XYG9 1-611): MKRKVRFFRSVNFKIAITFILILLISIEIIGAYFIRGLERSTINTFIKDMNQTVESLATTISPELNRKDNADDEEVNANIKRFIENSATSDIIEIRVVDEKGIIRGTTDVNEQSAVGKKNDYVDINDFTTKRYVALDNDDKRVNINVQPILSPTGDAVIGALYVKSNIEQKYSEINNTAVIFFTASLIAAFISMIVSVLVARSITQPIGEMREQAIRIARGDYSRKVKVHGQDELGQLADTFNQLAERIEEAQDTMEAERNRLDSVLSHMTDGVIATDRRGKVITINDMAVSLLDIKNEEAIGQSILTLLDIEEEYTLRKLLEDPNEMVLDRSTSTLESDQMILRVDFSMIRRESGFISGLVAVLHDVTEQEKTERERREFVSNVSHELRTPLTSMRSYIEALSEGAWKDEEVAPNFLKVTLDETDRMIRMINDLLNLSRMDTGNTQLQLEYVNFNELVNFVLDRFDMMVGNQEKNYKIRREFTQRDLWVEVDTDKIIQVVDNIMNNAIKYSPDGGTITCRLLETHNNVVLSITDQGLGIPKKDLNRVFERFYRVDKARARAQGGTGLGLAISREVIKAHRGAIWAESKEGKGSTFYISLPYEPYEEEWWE
# Assay: Micro-Scale Thermophoresis with purified labelled protein
# Assay type: binding
compound,measurement,value
"NCCc1c[nH]c2ccc(O)cc12 [5HT, serotonin]",Kd,4.5 ± 0.07 mM
